Reference: patent US20240018132A1, “5-HYDROXY-1,4-NAPHTHALENEDIONE FOR USE IN THE TREATMENT OF CANCER” (GODAVARI BIOREFINERIES LIMITED, priority 2020, published 2024)
Several values for one entry are separate records, joined by “and”; a condition that tells them apart may be missing. Equal values may be shown once.

How the values were obtained:
MDAMB231 [1] = assay: Wound Healing Assay (WHA), breast cancer cell line; assay type: cell-based; settings: IC10 conc. of compound
Description: (§1) Wound Healing Assay (WHA) determines the ability of cancer stem cells to heal the wound formed in a confluent monolayer.
(§2) Procedure: 0.35×10^6 cells were plated in each well of 6 Tissue Culture well plates. The plate was incubated for 48 hrs at 37° C., 5% CO2. […] IC10 conc. of the respective compound was added into each well. The plates were incubated at 37° C., 5% CO2 and the width of scratch was measured at various time intervals such as 6, 24 and 48 hours. Average of 3 distances were taken for each time point using IS camera Measure. A plot of average width of scratch in micrometer was plotted against the time interval after treatment.

MDAMB231 [2] = assay: In vitro antiproliferative assay (MTT assay), breast cancer cell line; assay type: cell-based
Method in brief: (§3)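 Compound exposure lasted 48 h at 37 °C in 5% CO2, following a 24 h attachment period; DMSO stocks were 0.1 M. Metabolic reduction of MTT (0.5 mg/ml, 4 h), solubilized in DMSO, gave viability, plotted as log % viability versus log drug concentration.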

PC3 [3] = assay: Soft agar colony-formation assay, prostate cancer; assay type: cell-based; settings: Soft Agar Assay, 1 week, Alamar Blue
Description: (§4) The Soft Agar Colony-formation Assay is an anchorage-independent growth assay in soft agar, which is one of the most stringent assays for detecting malignant transformation of cells. For this assay, malignant cells are cultured with appropriate controls in soft agar medium for 1-2 weeks. Following this incubation period, formed colonies can either be analyzed morphologically using cell stain and quantifying the number of colonies formed.
(§5) Briefly, for Soft Agar Assay a mixture of 50 ul of 2× medium (taken appropriately as per cell line) and 50 ul of 1.2% Bacto Agar were plated on to each well of 96 well micro titer assay plate. 10 ul of cells (of specific plating efficiency pre standardized for respective cell line) were mixed with 20 ul of 2× medium and 30 ul of 0.8% of Bacto Agar and 1.6 ul of drug (of appropriate concentration) in a vial and transferred to the solidified pre layers of the assay plates. The cells were then allowed to grow and form colonies at 37° C. and 5% CO2 for 1 week. An intermittent feeding with 50 ul of appropriate 2× medium was performed after 3 days of experimental set up. 16 ul of Alamar Blue (1.5 mg/ml) was then added to all the wells to quantify the developed colonies. The plates were incubated for 24 hrs at 37° C. Absorbance was then measured at 630 nm. XY graph of log Percent viability was then plotted against log drug concentration.
(§6) Following plating efficiencies were standardized for Soft Agar Assay: […]

MDAMB231 [4] = assay: Soft agar colony-formation assay, breast cancer; assay type: cell-based; settings: Soft Agar Assay, 1 week, Alamar Blue
Description: as §4, §5, §6

PC3 [5] = assay: Wound Healing Assay (WHA), prostate cancer cell line; assay type: cell-based; settings: IC10 conc. of compound
Description: as §1, §2

[6] = tested on: Aldehyde dehydrogenase (ALDH); assay: Aldehyde Dehydrogenase (ALDH) assay, ELISA kit; assay type: cell-based; settings: MDAMB231, 48 hrs
Excerpt: Aldehyde dehydrogenases (ALDH) are a family of enzymes that catalyze the metabolism of exogenous and endogenous aldehydes, preventing the accumulation of potentially reactive and toxic aldehydes and their metabolites. In addition to their role in aldehyde metabolism, ALDH enzymes also play critical roles in other cellular processes such as cell proliferation, differentiation, and survival. ALDH also serves as a marker for certain stem cell populations including hematopoietic stem cells and certain cancer stem cells. ALDH concentration was determined by using ([…] Dx) ELISA kit by following protocol: • 1 Standards (50 μl)/sample (40 μl) were added to the respective wells, (except Blank). • 2. (10 μl) Antibody-Biotin conjugate was then added in each sample well (except Blank). • 3. (50 μl) of Horse Radish Peroxidase (HRP) Conjugate was then added to each well (except Blank). • 4. The plates were incubated for one hour at 37° C. in the incubator. • 5. Wash (4 times with wash buffer) and blot residual buffer by firmly tapping the plate on the absorbent paper. Wipe off any liquid from the bottom of the microtiter wells as any residue can interfere in the reading step. • 6. Add TMB substrate A (50 μl) and then TMB substrate B (50 μl) to each well including Blank as well. • 7. Incubate for 10 mins at 37° C. in dark. • 8. Add (50 μl) stop solution. Wells should turn from blue to yellow. • 9. Read absorbance at 450 nm. • 10 A X-Y graph of concentration vs optical density was plotted. ALDH concentration was calculated by substituting optical density values in the regression analysis equation.

MDAMB231 [7] = assay: In vitro sphere-forming assay (cancer stem cells), Mammosphere media; settings: drug 250 uM; Mammosphere media; 2000 cells/well; n = 6 ± S.D
Description: In Vitro Sphere-forming Assay: Sphere assay measures the ability of cancer stem cells (CSCs) to form spheres in specially designed serum-free medium.
Mammosphere Media Preparation (For 100 mL): 1 g methyl cellulose autoclaved with magnetic stirrer, 100 ml plain media (MEBM) was added and dissolved under magnetic stirring. After complete dissolution FGF-80 μL, EGF-40 μL, Penstrep-1 mL, Heparin-400 μL was added.
Procedure—The cells were trypsinised and made into single-cell suspension by passing through cell strainers (100 μl and 40 μl, respectively), The cells were diluted at a concentration of 2000 cells/100 μL and suspended in either Mammosphere (for breast cell lines) or Prostosphere (for prostate cell lines). 100 μL of this suspension was added into each well of 96-well suspension plates and incubated at 37° C., 5% CO2 for 24 hrs. Appropriate concentrations of the drugs (2 μL) were added into respective wells with 100 μL of stem cell culture medium. Plates were incubated at 37° C., 50 CO2 for 72 hrs. After incubation, 2.5 μL of the respective drug concentration and 50 μL of stem cell culture medium were added into each well and the plates were further incubated at 37° C., 50% CO2 for 72 hrs. 3 μL of the respective drug concentration was added with 50 μL of stem cell culture medium again after incubation and plates were reincubated for 72 hrs at 37° C., 50 CO2. Number of primary spheres formed for each concentration were counted. The spheres were converted to 0 viability of spheres compared to untreated (Growth Control with DMSO, GCD).

PC3 [8] = assay: In vitro antiproliferative assay (MTT assay), prostate cancer cell line; assay type: cell-based
Method in brief: as §3

MCF7 = assay: In vitro antiproliferative assay (MTT assay), MCF7; assay type: cell-based; settings: Homo sapiens, second value of MDAMB231/MCF7 column
Description: MTT assay is a simple and sensitive assay where, metabolic reducing activity of the cells is measured. The increase of this activity in time is taken as a parameter of cell growth. If treatment with a drug impairs this increase, the action is a consequence of growth inhibition, cell killing or both. […] All cell lines were cultured in a 37° C. incubator with a 5% CO2 environment. Compounds were dissolved in DMSO with a concentration of 0.1M (stock solution). Cells were seeded into 96-well plates at suitable plating efficiency.
In the MTT procedure, the cells were plated in 96 well plates as per predetermined plating efficiency (Table1). The plates were then incubated for 24 hrs in 5% CO2 atmosphere at 37° C. Appropriate concentrations of the drugs were then added to the plate and further incubation was carried out for 48 hrs (in 5% CO2 atmosphere at 37° C.). The assay plate was then centrifuged twice at 3000 rpm for 3 mins and supernatant was then discarded. 100 ul of MTT solution (0.5 mg/ml) was then added to each well of the plate and it was further incubated for 4 hrs (in 5% CO2 atmosphere at 37° C.) Following 4 hr incubation, the plate was then centrifuged twice, and supernatant was aspirated off very carefully. 200 ul of DMSO was then added to each well to solubilize. MTT crystals and mixed well by shaking the plate. […]

[9] = Homo sapiens, MDA-MB-231, MTT assay, MDAMB231
[10] = Homo sapiens, PC-3, MTT assay, PC3

Row | Compound | % inhibition of Wound Healing for Breast Cancer Cell line (MDAMB231) after 48 hrs (MDAMB231 [1]) | IC50 (MDAMB231 [2]; MTT assay, breast cancer MDAMB231, 48 hrs drug incubation) | IC50 (PC3 [3]) | IC50 (MDAMB231 [4]) | % inhibition of Wound Healing for Prostate Cancer Cell line (PC3) after 48 hrs (PC3 [5]) | % inhibition of ALDH on Breast Cancer Cell line (MDAMB231) after 48 hrs [6] | 3D sphere count of MDAMB231 (MDAMB231 [7]) | IC50 (PC3 [8]; MTT assay, prostate cancer PC3, 48 hrs drug incubation) | IC50 (MCF7) | IC50 (MDAMB231 [2]; [9]) | IC50 (PC3 [8]; [10])
1 | N.N.[Cl][Pt][Cl] [Cisplatin, reference compound] | 33.78% | 31000 nM | 34400 nM | 35200 nM | 25.13% | 26.45% | 28(±3) and 26(±3) | 35900 nM |  |  | 
2 | O=C1C=C(Oc2ccc(F)c(F)c2)C(=O)c2c(OCCN3CCOCC3)cccc21 [Formula 83] |  |  |  |  |  |  |  |  | 660 nM | 860 nM | 721 nM
3 | O=C1C(Oc2ccc3c(c2)OCO3)=CC(=O)c2c(OCCCCN3CCOCC3)cccc21 [Formula 82] |  |  |  |  |  |  |  |  | 480 nM | 970 nM | 582 nM
